The values below come from ChEMBL document CHEMBL1201862, “PubChem BioAssay data set” (2004).

The structures appear in SMILES notation.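 1) Cells in 96-well plates. 2) Compound, 48 h, 5 concentrations. 3) Linear interpolation between surrounding doses. 4) Unreached endpoint = highest concentration. The concentration for 50% growth inhibition is given as GI50.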 The source made the active and inactive calls. Rule as the data show it: active = GI50 up to about 1.1 µM and inactive = higher. A value given as a limit tells only on which side of the number the result lay.

Test systems include ACHN; CAKI-1; Hs-578T; SF-539; HCT-116; KM12; OVCAR-5; T47D; HT-29; CCRF-CEM; SK-MEL-5; NCI-H23; NCI-H226; MCF7; SNB-19; NCI-H522; MOLT-4; K562.
What all share (assay): NCI anticancer screen, dose series, 48 h

With `c1ccc(C2(c3cc4ccccc4[nH]3)OCCO2)nc1`, the GI50 in the experiment with ACHN, in the experiment on CAKI-1, in the experiment with Hs-578T, in the experiment on SF-539, with HCT-116 and in the experiment with KM12 was > 100 µM (inactive) each time. Besides, the GI50 with OVCAR-5, in the experiment with T47D, in the experiment with HT-29, in the experiment with CCRF-CEM, with SK-MEL-5 and in the experiment with NCI-H23 was > 100 µM (inactive) each time. For the same compound, the GI50 in the experiment on NCI-H226, in the experiment with MCF7 and in the experiment with SNB-19 was > 100 µM (inactive) each time.

On to `O=C(Nc1ccc(Cl)cc1Cl)C(=O)C(C(=O)c1ccc2ccccc2c1)C1OC(=O)c2ccccc21` (centres undefined), for which the GI50 in the experiment on ACHN was 15.8 µM (inactive); with CAKI-1, 13.5 µM (inactive); in the experiment with SF-539, 2.68 µM (inactive); in the experiment with HCT-116, 5.56 µM (inactive); in the experiment with KM12, 15 µM (inactive); in the experiment on NCI-H522, > 10 µM (inactive). Also, the GI50 was 4.65 µM (inactive) in the experiment with OVCAR-5; 15.7 µM (inactive) with HT-29; 9.73 µM (inactive) with SK-MEL-5; 2.92 µM (inactive) with NCI-H23; 1.73 µM (inactive) in the experiment on NCI-H226; 5.78 µM (inactive) in the experiment with SNB-19.

For `Cn1c(=O)c2nc3nnc(C#N)c(N)n3c2n(C)c1=O`, the GI50 with ACHN is 44.4 µM (inactive); in the experiment on CAKI-1 it was 51.8 µM (inactive); with SF-539 it was 90.2 µM (inactive); with HCT-116 it was > 100 µM (inactive); with KM12 it was > 100 µM (inactive); with NCI-H522, > 100 µM (inactive). In addition, the GI50 in the experiment on MOLT-4 is > 100 µM (inactive); in the experiment with OVCAR-5, > 100 µM (inactive); in the experiment with T47D, 33 µM (inactive); in the experiment with HT-29 it was > 100 µM (inactive); in the experiment on CCRF-CEM, 67.8 µM (inactive); in the experiment on SK-MEL-5, 45.9 µM (inactive). Also, the GI50 with NCI-H226 is 54.1 µM (inactive); in the experiment with MCF7, > 100 µM (inactive); in the experiment with K562, > 100 µM (inactive).

`Cn1c(=O)c2c(nc(NCCNc3nc4c(c(=O)n(C)c(=O)n4C)n3C)n2C)n(C)c1=O`: the GI50 in the experiment on ACHN, with CAKI-1, in the experiment with Hs-578T, in the experiment with HCT-116, in the experiment with KM12 and with NCI-H522 was > 100 µM (inactive) in each case. Further, the GI50 in the experiment on MOLT-4, with OVCAR-5, in the experiment with T47D, with HT-29, in the experiment with CCRF-CEM and with SK-MEL-5 was > 100 µM (inactive) throughout. Moreover, the GI50 in the experiment with NCI-H23, in the experiment with NCI-H226, in the experiment on SNB-19 and in the experiment with K562 was > 100 µM (inactive) throughout.

For the compound `Cc1nn(C(=O)c2ccccc2O)c2c1C(c1ccc3ccccc3c1O)SC(=N)N2` (centres undefined), the GI50 is 3.8 µM (inactive) in the experiment with ACHN; 3.52 µM (inactive) with CAKI-1; 1.7 µM (inactive) in the experiment with Hs-578T; 4.53 µM (inactive) in the experiment with SF-539; 1.5 µM (inactive) in the experiment with HCT-116; 7.46 µM (inactive) with KM12. The GI50 in the experiment on MOLT-4 is 2.98 µM (inactive); with OVCAR-5 it was 7.19 µM (inactive); in the experiment on T47D, 1.87 µM (inactive); in the experiment with HT-29, 9.55 µM (inactive); with CCRF-CEM, 3.76 µM (inactive); with SK-MEL-5, 1.63 µM (inactive). For the same compound, the GI50 was 4.97 µM (inactive) in the experiment on NCI-H23; 2.65 µM (inactive) in the experiment with NCI-H226; 2.44 µM (inactive) in the experiment on MCF7; 8.61 µM (inactive) with SNB-19; 3.6 µM (inactive) with K562.

As to `Cc1cc(Cc2cc(C)c(NC(=O)C(=O)C3CCC4=C(SC5C=CC=CC5N4)C3=O)c(C(C)C)c2)cc(C(C)C)c1NC(=O)C(=O)C1CCC2=C(SC3C=CC=CC3N2)C1=O` (centres undefined), the GI50 in the experiment on ACHN is 62.4 µM (inactive); in the experiment with CAKI-1, 53.6 µM (inactive); in the experiment with SF-539, 12.5 µM (inactive); with HCT-116, 47 µM (inactive); in the experiment on KM12, 43.3 µM (inactive); with NCI-H522, 19.9 µM (inactive). Besides, the GI50 in the experiment with MOLT-4 was 32.2 µM (inactive); with OVCAR-5, > 100 µM (inactive); in the experiment on T47D it was 29.2 µM (inactive); in the experiment with HT-29, 58.6 µM (inactive); in the experiment on CCRF-CEM, 46.5 µM (inactive); in the experiment with SK-MEL-5, 35.8 µM (inactive). Also, the GI50 in the experiment with NCI-H23 was 41.4 µM (inactive); in the experiment on NCI-H226, 31 µM (inactive); with MCF7, 62.5 µM (inactive); with K562, 55.7 µM (inactive).

As for `COc1cc(/C=C2\N=C(c3ccccc3)N(c3nc4cc(C)c(C)cc4s3)C2=O)ccc1O`, the GI50 was 28.3 µM (inactive) with ACHN; 36.6 µM (inactive) in the experiment on CAKI-1; 30.8 µM (inactive) in the experiment on Hs-578T; 29.4 µM (inactive) with SF-539; 19.3 µM (inactive) in the experiment on HCT-116; 17.8 µM (inactive) with KM12. For the same compound, the GI50 with MOLT-4 was 2.75 µM (inactive); in the experiment with OVCAR-5 it was 40.6 µM (inactive); in the experiment with T47D, 44.1 µM (inactive); in the experiment with HT-29, 31.1 µM (inactive); with CCRF-CEM, 20.5 µM (inactive); with SK-MEL-5, 31.3 µM (inactive). Further, the figures for the GI50 in the experiment with MCF7, with SNB-19 and in the experiment with K562 were 11.2 µM (inactive), 74 µM (inactive) and 35.3 µM (inactive), respectively.

For the compound `Cc1cn(C2OC(CO[Si](C)(C)C(C)(C)C)/C(=C\C#N)C2O[Si](C)(C)C(C)(C)C)c(=O)[nH]c1=O` (centres undefined), the GI50 was 83 µM (inactive) in the experiment on ACHN; > 100 µM (inactive) in the experiment with CAKI-1; > 100 µM (inactive) with Hs-578T; 6.75 µM (inactive) with SF-539; 22.9 µM (inactive) in the experiment on HCT-116; 27.1 µM (inactive) in the experiment on KM12. For the same compound, the GI50 in the experiment on MOLT-4 was > 100 µM (inactive); with OVCAR-5, > 100 µM (inactive); in the experiment with T47D it was 5.3 µM (inactive); with HT-29 it was 40.7 µM (inactive); with CCRF-CEM, 9.51 µM (inactive); with SK-MEL-5, 6.87 µM (inactive). In addition, the GI50 was > 100 µM (inactive) with NCI-H23; > 100 µM (inactive) in the experiment on NCI-H226; 1.89 µM (inactive) in the experiment with MCF7; > 100 µM (inactive) in the experiment on SNB-19; 1.93 µM (inactive) with K562.

`CC(C)Sc1nncc(/C(N)=N/O)n1`: the GI50 with ACHN was > 100 µM (inactive); in the experiment on CAKI-1 it was > 100 µM (inactive); in the experiment on SF-539, > 100 µM (inactive); in the experiment with HCT-116, > 100 µM (inactive); with KM12 it was 88.5 µM (inactive); in the experiment on NCI-H522 it was > 100 µM (inactive). Moreover, the GI50 in the experiment on MOLT-4, in the experiment with OVCAR-5, with T47D, in the experiment with HT-29, with CCRF-CEM and in the experiment on SK-MEL-5 was > 100 µM (inactive) each time. Moreover, the GI50 in the experiment on NCI-H23, in the experiment on NCI-H226, with MCF7, in the experiment with SNB-19 and in the experiment with K562 was > 100 µM (inactive) in each case.

Take `O=C(N/C(=C\NC1=NCCS1)C(=O)N1CSC[C@@H]1C(=O)O)c1ccccc1`: the GI50 with ACHN, with CAKI-1, with SF-539, in the experiment with HCT-116, with KM12 and with MOLT-4 was > 100 µM (inactive) in each case. Also, the GI50 with OVCAR-5, with T47D, in the experiment with HT-29, in the experiment with CCRF-CEM, in the experiment with SK-MEL-5 and in the experiment with NCI-H23 was > 100 µM (inactive) throughout. The GI50 in the experiment with NCI-H226, in the experiment with MCF7, in the experiment with SNB-19 and in the experiment with K562 was > 100 µM (inactive) in each case.

Regarding `O=C(NN1C(=O)c2ccccc2C1=O)c1ccccc1Nc1ccccc1C(=O)NN1C(=O)c2ccccc2C1=O`, the GI50 in the experiment with ACHN, with CAKI-1, with SF-539, in the experiment with HCT-116, in the experiment on KM12 and with NCI-H522 was > 100 µM (inactive) throughout. For the same compound, the GI50 with MOLT-4, in the experiment on OVCAR-5, in the experiment with HT-29, in the experiment with CCRF-CEM, in the experiment on SK-MEL-5 and in the experiment with NCI-H23 was > 100 µM (inactive) in each case. Also, the GI50 in the experiment on NCI-H226, in the experiment on MCF7, in the experiment on SNB-19 and in the experiment on K562 was > 100 µM (inactive) throughout.

Consider `O=C(CBr)N1CCC2(CC1)SSC1(CCN(C(=O)CBr)CC1)S2`, for which the GI50 with ACHN was 1.54 µM (inactive); with Hs-578T it was 1.72 µM (inactive); in the experiment on SF-539 it was 1.68 µM (inactive); with HCT-116, 0.373 µM (active); in the experiment with KM12, 1.7 µM (inactive); in the experiment on MOLT-4, 0.159 µM (active). Further, the GI50 in the experiment with OVCAR-5 is 1.39 µM (inactive); with HT-29, 1.81 µM (inactive); with CCRF-CEM it was 0.15 µM (active); in the experiment with NCI-H23 it was 1.6 µM (inactive); in the experiment on SNB-19, 1.58 µM (inactive); in the experiment on K562 it was 0.647 µM (active).

Consider `CC(=O)Nc1ccc(NNc2cc(=O)n(C)c(=O)[nH]2)cc1`, for which the GI50 in the experiment on ACHN is 2.91 µM (inactive); in the experiment on Hs-578T it was 25.6 µM (inactive); in the experiment with SF-539, 9.73 µM (inactive); in the experiment with HCT-116 it was 4.33 µM (inactive); in the experiment with KM12, 12 µM (inactive); in the experiment with MOLT-4 it was 34.8 µM (inactive). The GI50 in the experiment with OVCAR-5 is 14.1 µM (inactive); in the experiment on HT-29, 2.02 µM (inactive); in the experiment on CCRF-CEM, > 10 µM (inactive); in the experiment on SK-MEL-5 it was 16.7 µM (inactive); with NCI-H23, 14.7 µM (inactive); in the experiment on NCI-H226, 22.4 µM (inactive). Moreover, the GI50 with MCF7 was 5.57 µM (inactive); in the experiment with SNB-19 it was 17.7 µM (inactive); in the experiment on K562, 33.3 µM (inactive).
